This note sets out measurements from patent US10968214B2, “KRas G12C inhibitors” (Eli Lilly and Company, priority 2018, dated 2021).

Molecules are shown by their SMILES. Like-named read-outs stand apart in the source and are kept apart here.

Test [1] concerns phosphorylation of p-ERK1/2 in H358 cells. The test is described as follows: H358 Cellular Phospho-ERK AlphaLISA. The test is classed as cell-based, Human. The note with it: Homo sapiens, NCI-H358, 2 h. As for the experimental part:
This assay is used to measure the ability of test compounds to inhibit the phosphorylation of p-ERK1/2, a downstream effector of KRas in Human lung cancer cells H358 (ATCC CRL-5807). Briefly, the AlphaLISA® SureFire® Ultra™ p-ERK 1/2 (Thr202/Tyr204) assay is a sandwich immunoassay for quantitative detection of phospho-ERK 1/2 (phosphorylated on Thr202/Tyr204 in ERK1, or Thr185/Tyr187 in ERK2) in cellular lysates using Alpha Technology (Perkin Elmer Cat #ALSU-PERK-A50K).
H358 cells are plated at 40K cells per well in 100 μL media (RPMI 1640, GIBCO Cat #22400-071) containing 10% FBS (GIBCO Cat #: 10082-147) in a 96 well plate (Costar #3596) and are incubated overnight in humid trays at 37° C., 5% CO2. The next morning, 10 μL of serially-diluted (3-fold) test compounds (50 μM top concentration) and 10 uL of controls (Maximum signal wells: 5% DMSO and Minimum signal wells: 2 μM of N-(3-{3-cyclopropyl-5-[(2-fluoro-4-iodophenyl)amino]-6,8-dimethyl-2,4,7-trioxo-3,4,6,7-tetrahydropyrido[4,3-D]pyrimidin-1(2H)-yl}phenyl)acetamide (trametinib, as a positive control) are added to the cell plate and incubated for 2 hr in humid trays at 37° C./5% CO2. Lysis Buffer is prepared at RT containing a protease and phosphatase inhibitor cocktail. Culture medium is removed by inverting and shaking the cell plate in the sink and then blotting onto a paper towel. Lysis buffer is added to the cell plate (50 μL per well) and the plate is incubated at RT for 10 min on a shaker. For p-ERK detection, acceptor beads are diluted into a suspension mixture with buffer. Using a Starlett liquid handler, 5 μL of acceptor beads and 2 μL of cell lysate are transferred as a single-step in-tip dilution to a 384 well assay plate. The assay plate is sealed with foil and is incubated at RT for 2 hrs. Donor beads are diluted into a suspension mixture with buffer. Using the Starlet, 5 μL of donor beads are added to the assay plate that is then sealed, wrapped with foil. The plate is incubated at RT for 2 hrs in the dark. The assay plate is then read on an EnVision™ Plate Reader (Perkin Elmer) using a luminescence program.
The signal is converted to percent inhibition using the following equation: % Inhibition=100−[(Test Compound Signal−Median Minimum Signal)/(Median Maximum Signal−Median Min Signal)×100]. The Maximum signal is a control well without inhibitor.

The target in test [2] is T1, constitutive RAS GTPAse activity in H358 cells (Homo sapiens, UniProt P01116, G12C).
T1 construct: host or cells: H358 human lung cancer cells
T1 sequence (P01116 1-188 isoform P01116-2 G12C): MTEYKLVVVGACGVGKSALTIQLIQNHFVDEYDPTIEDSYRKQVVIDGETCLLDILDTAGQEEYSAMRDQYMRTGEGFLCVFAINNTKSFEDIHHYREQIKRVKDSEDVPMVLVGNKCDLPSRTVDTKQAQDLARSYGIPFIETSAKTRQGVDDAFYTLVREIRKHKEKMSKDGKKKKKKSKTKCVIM
The test is described as follows: H358 Cellular Active RAS GTPase ELISA. The test is classed as cell-based. The note with it: 2 hr. The text has this: This assay is used to measure the ability of test compounds to inhibit constitutive RAS GTPAse activity in human lung cancer cells H358 (ATCC CRL-5807). The RAS GTPase ELISA kit (Active Motif Cat #52097) contains a 96-well plate pre-coated with glutathione in order to capture a kit-supplied GST-Raf-RBD protein. Activated RAS (GTP-bound) in cell extracts specifically bind to the Raf-RBD. Bound RAS is detected with a primary antibody that recognizes human KRas. A secondary antibody conjugated with HRP recognizes the primary antibody and a development solution provides a chemiluminescent readout.
H358 cells are plated at 80,000 cells/well in 90 μL serum free media (RPMI 1640, GIBCO) and incubated overnight at 37° C./5% CO2. The next morning, 10 μL of serially-diluted (3-fold) test compounds (500 μM top concentration) and 10 μL of controls (Maximum signal wells: 5% DMSO and Minimum signal wells: 500 μM LSN3429410 as an inhibitor) are added to the cell plate and incubated for 2 hr at 37° C./5% CO2. Complete Lysis/Binding Buffer is prepared containing Protease Inhibitor cocktail and GST-Raf-RBD and stored on ice. One hour before cell plate incubation is completed, 50 μL of GST-Raf-RBD is diluted in lysis/binding buffer, and buffer is added to the ELISA assay plate and which is incubated for 1 hour at 4° C. with gently rocking. After 2 hr, the cells are washed with 100 μL ice-cold PBS and lysed with 100 μL lysis/binding buffer. The cell plate is shaken for 10 min at RT. The cell plate is then centrifuged at 1500 rpm for 10 min at RT. During this time, 1× Wash Buffer is prepared at RT and then is used to wash (3×100 μL) the GST-Raf-RBD coated assay plate. After washing, 50 μL of cell lysate is added to the GST-Raf-RBD coated assay plate and incubated for 1 hour at RT with gentle shaking. During this incubation period, 1× Antibody Binding Buffer is prepared and brought to RT. The assay plate is washed 3×100 μL with 1× Wash Buffer and then 50 μL of Primary Antibody (diluted 1:500 in 1× Antibody Binding buffer) is added. The plate is incubated for 1 hour at RT. The assay plate is washed 3×100 μl with 1× Wash Buffer and then 50 μL of Secondary Antibody (diluted 1:5000 in 1× Antibody Binding buffer) is added and incubated for 1 hour at RT. The assay plate is washed 4×100 μL with 1× Wash buffer and then 50 μL of chemiluminescent working solution is added at RT. The assay plate is then read on an EnVision™ Plate Reader (Perkin Elmer) using a luminescence program.
The signal is converted to percent inhibition using the following equation: % Inhibition=100−[(Test Compound Signal−Median Minimum Signal)/(Median Maximum Signal−Median Minimum Signal)×100]. The Maximum signal is a control well without inhibitor.
(In general: In an ELISA, binding on a coated surface is turned into a signal by an enzyme label.)

The next test has as its system Miapaca-2. Description: CellTiterGlo Cell Proliferation Assay, Miapaca-2. The conditions noted are these: Homo sapiens, MIA PaCa-2, KRas G12C, Pancreas, 96 hr. The test is classed as cell-based. The protocol:
A panel of tumor cell lines harboring KRas G12C or other KRas mutations are collected (Table 6). All cell lines are from ATCC or other sources indicated.
Typically cells are cultured in RPMI1640 or Dulbecco's modified Eagle's medium (DMEM, GIBCO) supplemented with 10% FBS (GIBCO, Invitrogen). For 2D culture cells (4×10^3/well) maintained in growth medium described above, are plated onto 96 well tissue culture plates Corning® Cat. 3603) a day before the treatment. For 3D culture 8000 cells/well are seeded onto 96 well ultra-low attachment tissue culture plates (Corning, #3474). The cells are treated compound for 96 hr, and then are analyzed for viability using the CellTiterGlo® Luminescent Cell Viability Assay® (Promega #G7572 for 2D and Promega #G9683 for 3D cultures) according to manufacturer's instructions and an EnVision™ plate reader. Nonlinear regression and sigmoidal dose-response curves are used to calculate the half maximal inhibitory concentration (IC50) with GraphPad Prism 4® software.
In general terms: ATP-based viability assays read luminescence as a measure of living cells.

For the compound `C=CC(=O)N1CCN(c2ncnc3c(F)c(-c4ccc(F)c5sc(N)nc45)c(Cl)cc23)CC1` [Example 1, 1-{4-[7-(2-Amino-7-fluoro-1,3-benzothiazol-4-yl)-6-chloro-8-fluoroquinazolin-4-yl]piperazin-1-yl}prop-2-en-1-one], the IC50 in test [1] (read-out: pERK) turned out to be 5.66 nM; in test [1] (read-out: relative IC50), 5.7 nM; in test [2] (read-out: RAS-GTP), 37.1 nM; in test [2] (read-out: relative IC50), 37 nM; in the test with Miapaca-2 (read-out: IC50 (μM) in 2 D cell proliferation), 0.014 µM; with Miapaca-2 (read-out: IC50 (μM) in 3 D spheroid cell proliferation) it was 0.086 µM.
